Results on four compounds are retold here after publication PMC8667925, “New 1,2,4-oxadiazole derivatives with positive mGlu4 receptor modulation activity and antipsychotic-like properties” (Journal of Enzyme Inhibition and Medicinal Chemistry, 2021).

“Also recorded” adds a separate entry of the source.

One test concerns the target T1, mGlu8 receptor (Homo sapiens, UniProt O00222).
T1 construct: mGlu4 receptor NM_000841, mGlu7 receptor NM_000844.2, and mGlu8 receptor NM_000845; expressed in transfected cells; host or cells: T-REx 293
As to the kind of experiment: cAMP accumulation assay in cells expressing mGlu8 receptor (agonist, PAM, NAM modes). It counts as cell-based. As to conditions: 10 µM, agonist mode. On the procedure: (§1) The compounds were tested in the agonist, PAM (in the presence of EC20 concentration of L-Glu) or NAM (with EC80 of L-Glu) modes of forskolin-induced cAMP using T-REx 293 cells expressing the protein of a given receptor.
Figure 4. The activity of compounds 34, 37, 49, 52, 60, 62 and reference drugs MMPIP (a selective NAM of mGlu7 receptor) and AZ12216052 (a PAM of mGlu8 receptor) tested at a concentration of 10 μM in the cAMP accumulation assay in cells expressing mGlu7 and mGlu8 receptors. The percent activity refers to two extreme FRET signals: 0% corresponds to forskolin treatment alone and 100% to maximal FRET signal for the control cells (without any treatment). A/D – agonistic activity; B/E – PAM activity measured in the presence of L-Glu at the EC20 concentration (0.1 mM for mGlu7 receptor, and 1 μM for mGlu8 receptor); C/F – NAM activity measured in the presence of L-Glu at the EC80 concentration (1 mM for mGlu7 receptor, 10 μM for Glu8 receptor).
(§2) Determination of the intracellular cAMP through a homogeneous time-resolved fluorescence (HTRF) cAMP dynamic 2 kit from Cisbio (Codolet, France) was described previously by Chruścicka et al.[91]. Briefly, cells were grown in DMEM supplemented with 10% foetal bovine serum (FBS) (tetracycline free). Forty-eight hours before the experiments, mGlu receptor expression was induced by the addition of 0.75 µg/mL tetracycline. Twenty hours before the experiment, FBS and L-Glu were removed from the medium. Thereafter, the cells were scraped and centrifuged. A cell pellet was suspended in Hanks-HEPES (130 mM NaCl, 5.4 mM KCl, 1.8 mM CaCl2, 0.8 mM MgSO4, 0.9 mM NaH2PO4, 20 mM HEPES, and 3.25 mM glucose; pH 7.4). Then, the cell suspension was incubated in the presence of 10 µM forskolin (or 3 µM forskolin for mGlu7 receptor), the agonist L-glutamate and a compound for 5 min. Next, 10 µl of the cell suspension was mixed with 5 µl of cAMP-d2 conjugate and 5 µL of anti-cAMP cryptate conjugate. After 1 h of incubation at rt, the fluorescence at 620 nm and 665 nm was read (Tecan Infinite M1000). The results were calculated as the 665 nm/620 nm ratio multiplied by 10^4. Each sample was prepared in triplicate.

Another test deals with Albino Swiss mice. As to the kind of experiment: modified stress-induced hyperthermia (SIH) in singly housed mice. It counts as in vivo. Here is the method: The compounds were dissolved in a small amount of 100% EtOH and then adjusted with 20% cyclodextrin, and the pH was adjusted to 6.0. The investigated compounds were administered intraperitoneally (i.p.) 60 min before the behavioural test. Control drugs i.e. diazepam, clozapine and imipramine (Sigma–Aldrich, St. Louis, USA), were administered i.p. 60 min before the behavioural test. Cyclodextrin (20%) was used as a vehicle. All solutions were prepared immediately prior to the experiments and were administered at a constant volume of 10 ml/kg.
The procedure for modified stress-induced hyperthermia was adapted from Van der Heyden[93] and based on the procedure introduced by Borsini[94]. Each experimental group consisted of eight to ten animals. The animals were housed individually in a 26 × 21 × 14 cm Macolon cage 24 h before testing. For this assay, the body temperature was measured for each mouse at t = 0 min (T1) and t = +15 min (T2). Albino Swiss mice were placed into a new cage immediately following T1, with the difference in temperature (T2−T1) used as the measure of stress-induced hyperthermia. […] A comparison between T1 in vehicle-treated mice and those administered the test compound was used to determine whether the agent affects body temperature alone. Diazepam (5 mg/kg) was used as the positive control. The rectal temperature was measured to the nearest 0.1 °C with a Physitemp Theralert thermometer, TH-5, Clifton NJ, USA, with the temperature sensor for mice, Type T, Copper-Constantan Thermocouple, Braintree Scientific Inc. The lubricated thermistor probe (2 mm diameter) was inserted 20 mm into the rectum. The mouse was held at the base of the tail during this determination, and the thermistor probe was left in place until a constant reading was obtained for 15 s. The effects of the investigated compounds on the SIH response were investigated after administration of the compounds at doses of 5, 10 and 20 mg/kg.

Another test concerns the target T2, mGlu4 receptor (Homo sapiens, UniProt Q14833).
T2 construct: mGlu4 receptor NM_000841, mGlu7 receptor NM_000844.2, and mGlu8 receptor NM_000845; expressed in transfected cells; host or cells: T-REx 293
As to the kind of experiment: forskolin-induced cAMP assay, agonist mode, T-REx 293 cells. It counts as cell-based. Here is the method:
as §1, §2

Where [1] appears, read: 5 mg/kg i.p., 60 min before test.
[2] abbreviates: 20 mg/kg i.p., 60 min before test.
Where [3] appears, read: over the doses 5, 10 and 20 mg/kg i.p.
Where [4] appears, read: 10 mg/kg i.p., 60 min before test.

T1 sequence (O00222 34-908): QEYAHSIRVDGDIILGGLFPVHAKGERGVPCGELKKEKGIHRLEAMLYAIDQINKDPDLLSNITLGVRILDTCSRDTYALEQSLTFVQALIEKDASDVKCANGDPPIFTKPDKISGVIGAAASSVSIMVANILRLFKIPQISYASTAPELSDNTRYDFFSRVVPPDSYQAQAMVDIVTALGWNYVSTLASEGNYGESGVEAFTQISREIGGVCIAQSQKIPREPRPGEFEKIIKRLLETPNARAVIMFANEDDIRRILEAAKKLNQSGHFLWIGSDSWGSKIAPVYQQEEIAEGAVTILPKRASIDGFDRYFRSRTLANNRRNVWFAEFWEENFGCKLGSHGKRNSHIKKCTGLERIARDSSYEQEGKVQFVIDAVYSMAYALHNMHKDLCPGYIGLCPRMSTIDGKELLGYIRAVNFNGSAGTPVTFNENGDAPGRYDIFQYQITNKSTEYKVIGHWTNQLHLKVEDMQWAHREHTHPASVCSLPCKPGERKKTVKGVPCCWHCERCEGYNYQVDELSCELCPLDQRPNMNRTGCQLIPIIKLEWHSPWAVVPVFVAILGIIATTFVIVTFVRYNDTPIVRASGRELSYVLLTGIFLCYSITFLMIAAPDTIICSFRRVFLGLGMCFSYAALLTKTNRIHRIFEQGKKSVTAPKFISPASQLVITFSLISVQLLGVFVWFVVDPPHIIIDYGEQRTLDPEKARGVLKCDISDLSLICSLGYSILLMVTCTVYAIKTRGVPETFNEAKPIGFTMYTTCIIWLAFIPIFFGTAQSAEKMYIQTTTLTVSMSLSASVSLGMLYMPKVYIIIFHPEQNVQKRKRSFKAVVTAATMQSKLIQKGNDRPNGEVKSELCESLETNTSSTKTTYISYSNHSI
T2 sequence (Q14833 33-912): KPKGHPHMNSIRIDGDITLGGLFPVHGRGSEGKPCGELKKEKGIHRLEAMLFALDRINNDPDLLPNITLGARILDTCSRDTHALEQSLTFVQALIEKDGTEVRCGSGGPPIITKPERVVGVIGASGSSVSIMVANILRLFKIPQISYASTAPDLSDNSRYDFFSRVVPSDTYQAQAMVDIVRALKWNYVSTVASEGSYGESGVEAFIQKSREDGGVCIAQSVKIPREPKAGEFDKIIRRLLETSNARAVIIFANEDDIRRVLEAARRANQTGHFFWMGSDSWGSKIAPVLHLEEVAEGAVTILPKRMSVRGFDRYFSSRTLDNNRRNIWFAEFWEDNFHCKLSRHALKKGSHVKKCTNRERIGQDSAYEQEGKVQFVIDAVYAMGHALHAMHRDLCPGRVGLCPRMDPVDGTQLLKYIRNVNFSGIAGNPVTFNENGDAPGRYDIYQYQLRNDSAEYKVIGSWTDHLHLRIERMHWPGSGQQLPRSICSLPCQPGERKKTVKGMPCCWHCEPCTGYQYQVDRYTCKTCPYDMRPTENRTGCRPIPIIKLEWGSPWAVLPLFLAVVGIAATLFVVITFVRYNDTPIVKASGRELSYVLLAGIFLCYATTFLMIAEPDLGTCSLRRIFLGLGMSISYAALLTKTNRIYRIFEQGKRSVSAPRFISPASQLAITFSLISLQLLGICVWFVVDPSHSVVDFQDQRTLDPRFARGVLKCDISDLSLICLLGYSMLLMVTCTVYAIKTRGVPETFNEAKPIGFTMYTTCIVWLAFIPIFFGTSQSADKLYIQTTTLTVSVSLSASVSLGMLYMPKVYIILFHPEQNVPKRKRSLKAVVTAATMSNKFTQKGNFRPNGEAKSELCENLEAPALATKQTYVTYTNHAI

`O=C(Nc1ccc(-c2noc(-c3ccccc3Cl)n2)c(C(F)(F)F)c1)c1ccccn1` [Compound 60]: the “agonistic activity at mGlu8 receptor” value on mGlu8 receptor was “direct agonistic activity”. For the same compound, the “effect on SIH response” value is “reduced the temperature increase caused by stress” with Albino Swiss mice (setting [1]); “reduced the temperature increase caused by stress” in the test on Albino Swiss mice (setting [2]); “significant anxiolytic- and antipsychotic-like properties” with Albino Swiss mice (setting [3]).

Take `COc1cc(NC(=O)c2ccccn2)ccc1-c1noc(-c2ccccc2Cl)n1` [Compound 34]: at mGlu8 receptor, the “agonistic activity at mGlu8 receptor” value was “direct agonistic activity”. The EC50 at mGlu4 receptor was 1.11 µM. Moreover, the “effect on SIH response” value is “not effective” with Albino Swiss mice (setting [1]); “effective; also recorded: statistically significant reduction in SIH” in the test on Albino Swiss mice (setting [4]); “effective; also recorded: statistically significant reduction in SIH” in the test on Albino Swiss mice (setting [2]); “significant anxiolytic- and antipsychotic-like properties” in the test on Albino Swiss mice (setting [3]).

Take `COc1cc(NC(=O)c2ccccn2)ccc1-c1noc(-c2ccccc2F)n1` [Compound 37]: the “agonistic activity at mGlu8 receptor” value at mGlu8 receptor is on record as “direct agonistic activity”. Moreover, at mGlu4 receptor, the EC50 was found to be 3.94 µM. Besides, the “effect on SIH response” value in the test with Albino Swiss mice (setting [4]) is “effective; also recorded: weak activity”; in the test on Albino Swiss mice (setting [3]) it was “significant anxiolytic- and antipsychotic-like properties”.

As to `O=C(Nc1ccc(-c2noc(-c3ccccc3Cl)n2)c(Cl)c1)c1ccccn1` [Compound 52, N-(3-chloro-4-(5-(2-chlorophenyl)-1,2,4-oxadiazol-3-yl)phenyl)picolinamide], on mGlu8 receptor, the “agonistic activity at mGlu8 receptor” value is recorded as “direct agonistic activity”. Also, the “effect on SIH response” value in the test on Albino Swiss mice (setting [3]) was “significant anxiolytic- and antipsychotic-like properties; also recorded: significantly reduced SIH responses at all three doses; also recorded: at all doses significantly reduced the SIH response”.
